From ChEMBL document CHEMBL5241102, “Drugs for the treatment of glaucoma: Targets, structure-activity relationships and clinical research” (Eur J Med Chem, 2021)
pEC50, pIC50, pKi: −log10 of the molar value. “And” between values parts separate entries of the source, which are not always exact repeats. Equal entries are not always repeated. One block for each compound: values may come before it.

What was measured:
[1] = Induction of disruption of actin stress fibers in human TM1 cells by actin stress fiber assay; format: functional, cell-based
[2] = Induction of disruption of actin stress fibers in PTM cells by actin stress fiber assay; format: functional, cell-based, Sus scrofa; settings: ptm cell
[3] = target: Autotaxin (Homo sapiens, UniProt Q13822); test: Inhibition of ATX (unknown origin)
[4] = Half life in rabbit; format: ADME, Oryctolagus cuniculus; settings: in vivo
[5] = species on record: Mus musculus; test: Antiglaucoma activity in mouse eye assessed as increase in lymphatic drainage relative to control; format: functional
[6] = target: Prostaglandin E2 receptor EP2 subtype (Homo sapiens, UniProt P43116); test: Binding affinity to EP2 (unknown origin) assessed as inhibition constant
Sequence of Prostaglandin E2 receptor EP2 subtype (P43116 whole entry): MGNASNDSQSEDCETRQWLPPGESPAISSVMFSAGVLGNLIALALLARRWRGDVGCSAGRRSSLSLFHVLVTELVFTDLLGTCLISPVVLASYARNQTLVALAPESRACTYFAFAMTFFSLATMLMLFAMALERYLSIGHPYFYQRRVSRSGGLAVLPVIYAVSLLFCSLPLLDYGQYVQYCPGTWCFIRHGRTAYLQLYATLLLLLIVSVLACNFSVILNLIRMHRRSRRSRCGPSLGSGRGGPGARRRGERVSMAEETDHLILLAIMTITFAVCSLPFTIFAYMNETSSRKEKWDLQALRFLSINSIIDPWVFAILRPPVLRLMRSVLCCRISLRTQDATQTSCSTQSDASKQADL

[7] = Half life in human; format: ADME
[8] = system: Rhesus monkey; test: Antiglaucoma activity in ocular […] monkey assessed as reduction in intraocular pressure; format: functional, organism-based; settings: Macaca mulatta
[9] = target: T1, Prostaglandin E2 receptor EP3 subtype (Homo sapiens, UniProt P43115); test: Agonist activity at EP3 (unknown origin)
T1 sequence (P43115 whole entry): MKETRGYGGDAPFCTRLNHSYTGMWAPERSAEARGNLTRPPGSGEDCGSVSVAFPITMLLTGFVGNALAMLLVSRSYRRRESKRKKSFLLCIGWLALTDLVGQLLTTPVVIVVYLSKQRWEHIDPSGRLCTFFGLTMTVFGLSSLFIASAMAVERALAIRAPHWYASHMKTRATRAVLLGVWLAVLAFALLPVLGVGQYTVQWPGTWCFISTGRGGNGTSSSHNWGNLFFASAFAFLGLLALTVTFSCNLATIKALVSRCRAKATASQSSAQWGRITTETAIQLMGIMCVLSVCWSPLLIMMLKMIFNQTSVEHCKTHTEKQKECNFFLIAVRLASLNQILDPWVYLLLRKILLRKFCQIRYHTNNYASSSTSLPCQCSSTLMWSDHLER

[10] = target: Prostaglandin F2-alpha receptor (Homo sapiens, UniProt P43088); test: Agonist activity at FP receptor (unknown origin)
Sequence of Prostaglandin F2-alpha receptor (P43088 whole entry): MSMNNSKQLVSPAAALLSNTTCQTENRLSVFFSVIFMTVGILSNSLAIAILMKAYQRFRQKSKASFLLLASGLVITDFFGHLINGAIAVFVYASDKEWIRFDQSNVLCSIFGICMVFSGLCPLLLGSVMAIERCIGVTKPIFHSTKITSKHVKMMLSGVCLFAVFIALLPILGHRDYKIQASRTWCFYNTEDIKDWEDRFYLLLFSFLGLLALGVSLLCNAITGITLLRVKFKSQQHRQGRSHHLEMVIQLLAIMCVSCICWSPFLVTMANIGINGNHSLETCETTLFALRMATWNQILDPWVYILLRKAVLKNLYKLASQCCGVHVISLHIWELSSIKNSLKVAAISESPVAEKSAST

Compound: CCCCCn1c(N2CCC[C@H](C(=O)O)C2)cc(=O)n2cc(-c3ccc(Cl)cc3)nc12
pIC50 [3]: 6.96

Compound: CC(C)OC(=O)CCC/C=C\C[C@@H]1[C@@H](CC[C@@H](O)CCc2ccccc2)[C@H](O)C[C@@H]1O [LATANOPROST]
Activity [5]: 400%

Compound: O=C(O)CNc1cccc(CN(Cc2ccc(-n3cccn3)cc2)S(=O)(=O)c2cccnc2)n1 [OMIDENEPAG]
pKi [6]: 8.44 | half-life [7]: 0.5 h | pEC50 [8]: 8.08

Compound: CC(C)OC(=O)CCC[C@H]1CC[C@@H]2[C@@H](/C=C/[C@@H](O)COc3cc(F)ccc3F)[C@H](O)C[C@@H]2OC1 [SEPETAPROST]
pEC50 [9]: 8.00 | pEC50 [10]: 5.52

The remaining lines, values ahead:

pIC50 [1]: 7.80 | pIC50 [2]: 7.10
Compound: Cc1ccc(C(=O)OCc2ccc([C@@H](CN)C(=O)Nc3ccc4cnccc4c3)cc2)c(C)c1

pIC50 [2]: 7.66 and 8.52
Compound: NC[C@@H](C(=O)Nc1ccc2cnccc2c1)c1ccc(CO)cc1

half-life [4]: 1.8 h
Compound: O=C(CCC/C=C\C[C@@H]1[C@@H](CC[C@@H](O)CCc2ccccc2)[C@H](O)C[C@@H]1O)OCCCCO[N+](=O)[O-] [LATANOPROSTENE BUNOD]

pEC50 [9]: 7.54 | pEC50 [10]: 7.65
Compound: O=C(O)CCC[C@H]1CC[C@@H]2[C@@H](/C=C/[C@@H](O)COc3cc(F)ccc3F)[C@H](O)C[C@@H]2OC1 [ONO-AG-367]
